Source: PubChem BioAssay AID2060905 (Molecular Pharmacology Branch, DTP, NCI, 2025)

Test system: 282377-053-R-J1-PDC complex spheroid viability
Assay: Anticancer human tumor 282377-053-R-J1-PDC patient-derived colon adenocarcinoma cell line growth inhibition [RAS]
Details: for IC50: curve of first compound; for viability, T/C: stronger effect = lower value
Procedure, shortened: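 Agents were tested in combination matrices in half-log decrements from a top concentration at or near clinical Cmax (10 microM if undetermined). Targets were multi-cell spheroids of tumour lines plus HUVEC and MSC stromal cells.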

[1] = second compound 0.00316 µM, first compound 0.0316 µM
[2] = second compound 0.00316 µM, first compound 0.1 µM
[3] = second compound 0.01 µM, first compound 0.0316 µM
[4] = second compound 0.01 µM, first compound 0.1 µM
[5] = second compound 0.0316 µM, first compound 0.0316 µM
[6] = second compound 0.0316 µM, first compound 0.1 µM
[7] = second compound 0.1 µM, first compound 0.0316 µM
[8] = second compound 0.1 µM, first compound 0.1 µM
[9] = second compound 0.316 µM, first compound 0.0316 µM
[10] = second compound 0.316 µM, first compound 0.1 µM
[11] = second compound 1 µM, first compound 0.0316 µM
[12] = second compound 1 µM, first compound 0.1 µM
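Further: spheroids exposed to agents for seven days before readout.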
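Wherever viability, T/C is given: luminescence viability as percent of DMSO vehicle control wells.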

`CC(C)NCC(C(=O)N1CCN(c2ncnc3c2C(C)CC3O)CC1)c1ccc(Cl)cc1` (centres undefined) + C=CC(=O)N1CCN(c2nc(OCC3CCCN3C)nc3c(F)c(-c4nc(N)cc(C)c4C(F)(F)F)c(Cl)cc23)C(C)C1 was tested, and the IC50 (second compound 0.00316 µM) was greater than 10000 nM, the IC50 (second compound 0.01 µM) was greater than 10000 nM and the IC50 (second compound 0.0316 µM) was greater than 10000 nM. For the same compound, the IC50 (second compound 0.1 µM) was greater than 10000 nM, the IC50 (second compound 0.316 µM) was greater than 10000 nM and the IC50 (second compound 1 µM) was greater than 10000 nM. It also gave a viability, T/C [1] of 104%, a viability, T/C [2] of 108% and a viability, T/C (second compound 0.00316 µM, first compound 0.316 µM) of 96.2%. The viability, T/C (second compound 0.00316 µM, first compound 1 µM) was 94.1%, the viability, T/C (second compound 0.00316 µM, first compound 3.16 µM) was 88.8% and the viability, T/C (second compound 0.00316 µM, first compound 10 µM) was 84.7%. It also gave a viability, T/C [3] of 99.3%, a viability, T/C [4] of 107% and a viability, T/C (second compound 0.01 µM, first compound 0.316 µM) of 83.2%. It also gave a viability, T/C (second compound 0.01 µM, first compound 1 µM) of 110%, a viability, T/C (second compound 0.01 µM, first compound 3.16 µM) of 89.5% and a viability, T/C (second compound 0.01 µM, first compound 10 µM) of 75.6%. It also gave a viability, T/C [5] of 98.2%, a viability, T/C [6] of 99.3% and a viability, T/C (second compound 0.0316 µM, first compound 0.316 µM) of 89.3%. The viability, T/C (second compound 0.0316 µM, first compound 1 µM) was 97.3%, the viability, T/C (second compound 0.0316 µM, first compound 3.16 µM) was 91.8% and the viability, T/C (second compound 0.0316 µM, first compound 10 µM) was 85.4%. It also gave a viability, T/C [7] of 97.9%, a viability, T/C [8] of 105% and a viability, T/C (second compound 0.1 µM, first compound 0.316 µM) of 98.7%. For the same compound, the viability, T/C (second compound 0.1 µM, first compound 1 µM) was 95.8%, the viability, T/C (second compound 0.1 µM, first compound 3.16 µM) was 82.7% and the viability, T/C (second compound 0.1 µM, first compound 10 µM) was 79.8%. For the same compound, the viability, T/C [9] was 101%, the viability, T/C [10] was 96.7% and the viability, T/C (second compound 0.316 µM, first compound 0.316 µM) was 96.2%. For the same compound, the viability, T/C (second compound 0.316 µM, first compound 1 µM) was 98%, the viability, T/C (second compound 0.316 µM, first compound 3.16 µM) was 101% and the viability, T/C (second compound 0.316 µM, first compound 10 µM) was 84.8%. For the same compound, the viability, T/C [11] was 100%, the viability, T/C [12] was 88.5% and the viability, T/C (second compound 1 µM, first compound 0.316 µM) was 118%. It also gave a viability, T/C (second compound 1 µM, first compound 1 µM) of 78.9%, a viability, T/C (second compound 1 µM, first compound 3.16 µM) of 68.7% and a viability, T/C (second compound 1 µM, first compound 10 µM) of 76%.

Work on `CC(C)n1nc(-c2ccc3oc(N)nc3c2)c2c(N)ncnc21` + C=CC(=O)N1CCN(c2nc(OCC3CCCN3C)nc3c(F)c(-c4nc(N)cc(C)c4C(F)(F)F)c(Cl)cc23)C(C)C1 yielded an IC50 (second compound 0.00316 µM) greater than 100 nM, an IC50 (second compound 0.01 µM) of 89.8 nM and an IC50 (second compound 0.0316 µM) of 94.1 nM. It also gave an IC50 (second compound 0.1 µM) of 85.9 nM, an IC50 (second compound 0.316 µM) greater than 100 nM and an IC50 (second compound 1 µM) greater than 100 nM. For the same compound, the viability, T/C (second compound 0.00316 µM, first compound 0.000316 µM) was 96.6%, the viability, T/C (second compound 0.00316 µM, first compound 0.001 µM) was 86.9% and the viability, T/C (second compound 0.00316 µM, first compound 0.00316 µM) was 80%. The viability, T/C (second compound 0.00316 µM, first compound 0.01 µM) was 87.7%, the viability, T/C [1] was 62.8% and the viability, T/C [2] was 54.5%. It also gave a viability, T/C (second compound 0.01 µM, first compound 0.000316 µM) of 85.3%, a viability, T/C (second compound 0.01 µM, first compound 0.001 µM) of 81% and a viability, T/C (second compound 0.01 µM, first compound 0.00316 µM) of 74.5%. It also gave a viability, T/C (second compound 0.01 µM, first compound 0.01 µM) of 87%, a viability, T/C [3] of 68.8% and a viability, T/C [4] of 47.8%. For the same compound, the viability, T/C (second compound 0.0316 µM, first compound 0.000316 µM) was 92.2%, the viability, T/C (second compound 0.0316 µM, first compound 0.001 µM) was 98.3% and the viability, T/C (second compound 0.0316 µM, first compound 0.00316 µM) was 87.5%. It also gave a viability, T/C (second compound 0.0316 µM, first compound 0.01 µM) of 82.5%, a viability, T/C [5] of 97.5% and a viability, T/C [6] of 47.7%. It also gave a viability, T/C (second compound 0.1 µM, first compound 0.000316 µM) of 81.7%, a viability, T/C (second compound 0.1 µM, first compound 0.001 µM) of 105% and a viability, T/C (second compound 0.1 µM, first compound 0.00316 µM) of 91%. It also gave a viability, T/C (second compound 0.1 µM, first compound 0.01 µM) of 78.3%, a viability, T/C [7] of 77.5% and a viability, T/C [8] of 45.7%. It also gave a viability, T/C (second compound 0.316 µM, first compound 0.000316 µM) of 110%, a viability, T/C (second compound 0.316 µM, first compound 0.001 µM) of 103% and a viability, T/C (second compound 0.316 µM, first compound 0.00316 µM) of 109%. For the same compound, the viability, T/C (second compound 0.316 µM, first compound 0.01 µM) was 68.3%, the viability, T/C [9] was 61.9% and the viability, T/C [10] was 48.6%. For the same compound, the viability, T/C (second compound 1 µM, first compound 0.000316 µM) was 99.9%, the viability, T/C (second compound 1 µM, first compound 0.001 µM) was 85.1% and the viability, T/C (second compound 1 µM, first compound 0.00316 µM) was 112%. The viability, T/C (second compound 1 µM, first compound 0.01 µM) was 67.7%, the viability, T/C [11] was 55.4% and the viability, T/C [12] was 61.9%.
